Biological target: Dipeptidyl peptidase 4 (Homo sapiens) (UniProt P27487)
Sequence (P27487 whole entry, looked up): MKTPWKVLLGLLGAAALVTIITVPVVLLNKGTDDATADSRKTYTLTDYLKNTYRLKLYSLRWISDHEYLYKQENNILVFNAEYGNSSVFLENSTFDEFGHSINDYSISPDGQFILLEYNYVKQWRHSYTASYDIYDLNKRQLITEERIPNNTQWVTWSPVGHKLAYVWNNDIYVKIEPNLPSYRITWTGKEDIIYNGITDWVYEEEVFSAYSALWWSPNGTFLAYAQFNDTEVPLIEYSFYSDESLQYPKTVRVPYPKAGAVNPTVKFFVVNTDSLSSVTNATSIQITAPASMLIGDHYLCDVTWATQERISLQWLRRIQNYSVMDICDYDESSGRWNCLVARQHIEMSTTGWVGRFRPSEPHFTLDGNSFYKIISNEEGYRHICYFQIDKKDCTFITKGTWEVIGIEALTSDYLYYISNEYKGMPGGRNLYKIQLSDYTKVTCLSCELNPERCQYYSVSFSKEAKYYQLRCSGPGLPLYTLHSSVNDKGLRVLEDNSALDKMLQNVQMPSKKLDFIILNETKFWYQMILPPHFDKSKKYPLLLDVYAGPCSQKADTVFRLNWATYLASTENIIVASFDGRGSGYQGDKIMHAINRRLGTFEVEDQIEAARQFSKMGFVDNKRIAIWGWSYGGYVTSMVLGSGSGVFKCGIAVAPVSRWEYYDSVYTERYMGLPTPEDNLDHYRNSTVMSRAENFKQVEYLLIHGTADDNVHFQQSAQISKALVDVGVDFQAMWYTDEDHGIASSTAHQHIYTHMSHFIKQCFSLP
Description: Inhibition of human seminal fluid DPP4

NC(=O)c1cccc(CN2CC3CN(C(=O)C[C@H](N)Cc4cc(F)c(F)cc4F)CCN3C2=O)c1 (stereo partly specified)
IC50: 78 nM
